Consider one compound from patent publication US12083093B2, “Composition for preventing or treating cellular senescence-related diseases comprising salinomycin as effective component” (RESEARCH COOPERATION FOUNDATION OF YEUNGNAM UNIVERSITY, priority 2018, dated 2024).

The subject of test [1] is premature senescent vascular endothelial cells (HUVEC) by doxorubicin. As to the kind of experiment: SAβG activity staining, doxorubicin-induced premature senescent HUVEC. The format is cell-based, human. To be noted: 100 nM, 4 days; compared to DMSO-treated group; p<0.01; FIG. 3A, 3B. The procedure:
(§1) Each cell was treated in a serum-free culture solution containing doxorubicin (0.5 μM) for 4 hours. After washing the cells with a serum-free culture solution, the cells were cultured for 4 days in a culture solution containing 10% FBS, and then cellular aging was confirmed by measuring the level of senescence by staining with senescence-associated beta galactosidase.
(§2) After each sample was dissolved in DMSO, young cells, replicative senescent cells and senescent cells in which premature aging was induced by treating with doxorubicin were treated with 100 nM salinomycin, 100 nM rapamycin, 100 nM ABT263. After incubation for 4 days in a 37° C., 5% CO2 incubator, the degree of cell survival was confirmed by CCK-8 analysis, the degree of cellular aging was confirmed by senescence-associated β-galactosidase (SAβG) staining, p53 and p16 protein expression analysis.
The cells were washed with 1× phosphate buffer solution, and fixed with a phosphate buffer solution containing 3.7% (v/v) paraformaldehyde. After adding 1 mg/ml 5-bromo-4-chloro-3-indolyl-β-D-galactoside, 40 mM citric acid-sodium phosphate (pH 6.0), 5 mM potassium ferricyanide, 5 mM potassium ferrocyanide, 150 mM NaCl, and 2 mM MgCl2 solution, it was reacted at 37° C. for 18 hours. It was stained with eosin as a control stain and cells stained blue in the cytoplasm were identified using an optical microscope. […]

The next test concerns young fibroblasts (HDF). As to the kind of experiment: CCK-8 cell survival, young human fibroblasts. The format is cell-based. To be noted: young cells, increasing concentration of salinomycin; FIG. 2A, 2D. The procedure: as §2
Young cells (1×10^3 cells/well) or senescent cells (2×10^3 cells/well) were dispensed into a 96-well plate, and cultured overnight in a 37° C., 5% CO2 incubator. Salinomycin, ABT263 and rapamycin were treated at each concentration, and then incubated for 4 days in a 37° C., 5% CO2 incubator. 10 μl of CCK-8 reagent (Dojindo Molecular Technologies Inc., Kumamoto, Japan) was added to each well, and incubated for 2 hours in an incubator. Then, the absorbance was measured at 450 nm using a Microplate reader.
The degree of cell survival was expressed as a relative value for the absorbance of the control group treated with only DMSO as 100%.

The subject of test [2] is premature senescent human fibroblasts induced by doxorubicin (HDF). In words: CCK-8 cell survival, doxorubicin-induced premature senescent human fibroblasts. The format is cell-based. To be noted: 100 nM, 4 days; compared to DMSO-treated group; p<0.01; FIG. 1C. The procedure: as §1, §2
Young cells (1×10^3 cells/well) or senescent cells (2×10^3 cells/well) were dispensed into a 96-well plate, and cultured overnight in a 37° C., 5% CO2 incubator. Salinomycin, ABT263 and rapamycin were treated at each concentration, and then incubated for 4 days in a 37° C., 5% CO2 incubator. […] Then, the absorbance was measured at 450 nm using a Microplate reader.
The degree of cell survival was expressed as a relative value for the absorbance of the control group treated with only DMSO as 100%. […]

For test [3], the system named is pulmonary fibrosis induced by bleomycin. The format is in vivo, C57BL/6J mice. To be noted: compared to PBS group. As for the experimental part:
Animal experiments were conducted with the approval of the Animal Experimental Ethics Committee, Yeungnam University College of Medicine (YUMC-AEC2018-025). After anesthetizing by injecting 2.5% avertin (Avertin; 0.025 ml/g) into the abdominal cavity of 10-week-old C57BL/6J male mice, 2 mU/g of bleomycin was instilled into the bronchi and injected into the lungs.
From 5 days after bleomycin administration, 2.5 μl of 10 mM salinomycin was diluted in 100 μl phosphate buffer solution at intervals of 3 days and injected intraperitoneally 6 times (Sal group).
Three mice were used for each group, and lungs were excised by sacrifice 22 days after bleomycin injection and fixed in 10% formalin solution or stored frozen in liquid nitrogen.
The tissue fixed in 10% formalin solution was embedded with paraffin and cut into 4 μm to prepare a tissue sample. After removing paraffin from the tissue sample, hematoxylin-eosin staining, trichrome staining, and PAS staining were performed.
The degree of fibrosis was measured by analyzing the degree of collagen staining using the i-Solution™ software program (IMT Inc., Canada) after trichrome staining and the degree of cell senescence in tissue samples was investigated by staining lipofuscin with Sudan black B (Viegas M S, et al., European journal of histochemistry: EJH. 2007). The degree of peritoneal fibrosis was confirmed by measuring the submesothelial thickness of the peritoneal mesothelial cell layer using the NIH Image J program.
In addition, lung tissue samples were prepared, and hematoxylin-eosin staining and trichrome staining were performed to confirm the degree of damage to the lung tissue and the degree of lung fibrosis.

The test system of test [4] is replicative senescent vascular endothelial cells (HUVEC). As to the kind of experiment: SAβG activity staining, replicative senescent HUVEC. The format is cell-based, human. To be noted: salinomycin treatment, 4 days; FIG. 4A, 4B. The procedure: After dispensing 2×10^5 cells in a 100 mm culture dish, they were cultured in a 37° C., 5% CO2 incubator. When the cells grew to 80-90% in the culture dish, the cells were removed by treatment with trypsin-EDTA, and the number of cells was measured, and the cell population doubling time (PDT) was measured.
By successively subculturing the cells in the same process as described above, replication aging was induced. PDT of young fibroblasts was 36 hours, PDT of replicative senescent fibroblasts was 12 days, PDT of young vascular endothelial cells was 24 hours, and PDT of replicative senescent vascular endothelial cells was 7 days.
as §2
The cells were washed with 1× phosphate buffer solution, and fixed with a phosphate buffer solution containing 3.7% (v/v) paraformaldehyde. […]

Consider `CC[C@@H](C(=O)[C@@H](C)[C@@H](O)[C@H](C)[C@@H]1O[C@@H]([C@@H](CC)C(=O)O)CC[C@@H]1C)[C@H]1O[C@]2(C=C[C@@H](O)[C@]3(CC[C@@](C)([C@H]4CC[C@](O)(CC)[C@H](C)O4)O3)O2)[C@H](C)C[C@@H]1C` [salinomycin], for which the SAβG activity staining result in test [1] is given as “significantly decreased”. Further, the results for the “cell survival (CCK-8)” value (in the test with young fibroblasts (HDF); in test [2]) were “no change” and “decreased significantly”, respectively. Also, the “degree of lung tissue damage” value in test [3] (hematoxylin-eosin staining, FIG. 8C, 8D) is “statistically significantly reduced”. Further, the body weight entry in test [3] (i.p. 6 times at 3-day intervals, FIG. 8B) is recorded as “further increased”. Besides, the “degree of lung fibrosis” value in test [3] (trichrome staining, FIG. 8C, 8D) is given as “statistically significantly reduced”. The SAβG activity entry in test [4] is given as “decreased”.
